The source of these data is patent US9133206B2, “Benzodiazepine and pyridodiazepine derivatives” (AbbVie Inc., priority 2010, dated 2015).

The subject of this test is SK-N-SH human neuroblastoma cells. Put plainly: Serum Deprivation/JC-1 Mitochondrial Membrane Potential (MMP) Assay. The conditions noted are these: Homo sapiens; for EC50 / Emax: SK-N-SH; for EC50: 18 h, serum deprivation ~18 hours, JC-1 ratio normalized to peak value for 10 μM dimebolin, single curve fit to mean data of n=2-3; for Emax: percent maximal intensity in JC-1 ratio normalized to peak value for 10 μM dimebolin, read-out: JC-1 max %; for Emax / activation at 3 µM: serum deprivation; for activation at 3 µM: single dose 3 μM, JC-1 ratio normalized to peak value for 10 μM dimebolin (n=2-4), read-out: JC-1 max % (@ 3 μM). The class given is cell-based. The gist of the method: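 SK-N-SH cells serum-deprived ~18 h with compound, then stained with JC-1 for 40 min at 37 °C; red (560/595 nm) to green (485/535 nm) ratio reports membrane potential. Response normalized to peak from 10 μM dimebolin; EC50 from fit to mean of n=2–3, or single-dose 3 μM; DMSO ≤1%.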

Consider `O=C(N1CCOCC1)N1Cc2ccccc2N2CCNCC2C1` (stereo not drawn) [Example 75, 1,2,3,4,4a,5-hexahydropyrazino[1,2-a][1,4]benzodiazepin-6(7H)-yl(morpholin-4-yl)methanone], for which the 50% effective concentration (EC50) (usually the concentration needed to bring the measured effect to its halfway point) was > 10 µM and the Emax is 48%.

`O=C(N1CCOCC1)N1Cc2ccccc2N2CCN(Cc3ccc(F)cc3)CC2C1` (stereo not drawn) [Example 76, [3-(4-fluorobenzyl)-1,2,3,4,4a,5-hexahydropyrazino[1,2-a][1,4]benzodiazepin-6(7H)-yl](morpholin-4-yl)methanone]: the EC50 is 7.06 µM and the Emax was found to be 127%.

Regarding `CN1CCN2c3ccccc3CN(C(=O)N3CCOCC3)CC2C1` (stereo not drawn) [Example 77, (3-methyl-1,2,3,4,4a,5-hexahydropyrazino[1,2-a][1,4]benzodiazepin-6(7H)-yl)(morpholin-4-yl)methanone], the concentration for a half-maximal effect (EC50) stood at 10.2 µM and the Emax worked out at 57%.

As to `O=C(Cn1ncccc1=O)N1CCC2CN(Cc3ccccc3)CCN2c2ccccc21` (stereo not drawn) [Example 78, 2-[2-(3-benzyl-2,3,4,4a,5,6-hexahydropyrazino[1,2-a][1,5]benzodiazepin-7(1H)-yl)-2-oxoethyl]pyridazin-3(2H)-one], the EC50 amounted to 8.55 µM and the Emax came out at 143%.

For the compound `O=C(c1ccccc1)N1CCN2c3ccccc3CN(C(=O)N3CCOCC3)CC2C1` (stereo not drawn) [Example 79, (3-benzoyl-1,2,3,4,4a,5-hexahydropyrazino[1,2-a][1,4]benzodiazepin-6(7H)-yl)(morpholin-4-yl)methanone], the half-maximal effective concentration (EC50) is 9.25 µM and the Emax is 86%.

In the case of `O=C(N1CCOCC1)N1Cc2ccccc2N2CCN(c3ncccn3)CC2C1` (stereo not drawn) [Example 80, morpholin-4-yl[3-(pyrimidin-2-yl)-1,2,3,4,4a,5-hexahydropyrazino[1,2-a][1,4]benzodiazepin-6(7H)-yl]methanone], the EC50 worked out at 11.9 µM and the Emax amounted to 97%.

Regarding `O=C(N1CCOCC1)N1Cc2ccccc2N2CCN(S(=O)(=O)c3ccccc3)CC2C1` (stereo not drawn) [Example 81, morpholin-4-yl[3-(phenylsulfonyl)-1,2,3,4,4a,5-hexahydropyrazino[1,2-a][1,4]benzodiazepin-6(7H)-yl]methanone], the 50% effective concentration (EC50) was found to be 9.92 µM and the Emax is 129%.

For the compound `O=C(N1CCOCC1)N1Cc2ccccc2N2CCN(c3ccc(Cl)cc3)CC2C1` (stereo not drawn) [Example 82, [3-(4-chlorophenyl)-1,2,3,4,4a,5-hexahydropyrazino[1,2-a][1,4]benzodiazepin-6(7H)-yl](morpholin-4-yl)methanone], the half-maximal effective concentration (EC50) was found to be 5.11 µM and the Emax is 127%.

Take `CC(=O)N1CCN2c3ccccc3CN(C(=O)N3CCOCC3)CC2C1` (stereo not drawn) [Example 83, 1-[6-(morpholin-4-ylcarbonyl)-1,2,4a,5,6,7-hexahydropyrazino[1,2-a][1,4]benzodiazepin-3(4H)-yl]ethanone]: the EC50 was > 31.6 µM and the Emax is 34%.

With `CC(=O)N1CCC(C(=O)N2Cc3ccccc3N3CCN(Cc4ccccc4)CC3C2)CC1` (stereo not drawn) [Example 84, 1-{4-[(3-benzyl-1,2,3,4,4a,5-hexahydropyrazino[1,2-a][1,4]benzodiazepin-6(7H)-yl)carbonyl]piperidin-1-yl}ethanone], the activation at 3 µM stood at 183%.

`O=C(c1cn[nH]c1)N1Cc2ccccc2N2CCN(Cc3ccccc3)CC2C1` (stereo not drawn) [Example 85, (3-benzyl-1,2,3,4,4a,5-hexahydropyrazino[1,2-a][1,4]benzodiazepin-6(7H)-yl)(1H-pyrazol-4-yl)methanone]: the activation at 3 µM was found to be 80%.

As to `O=C(c1ccn[nH]1)N1Cc2ccccc2N2CCN(Cc3ccccc3)CC2C1` (stereo not drawn) [Example 86, (3-benzyl-1,2,3,4,4a,5-hexahydropyrazino[1,2-a][1,4]benzodiazepin-6(7H)-yl)(1H-pyrazol-5-yl)methanone], the EC50 worked out at 3.14 µM and the Emax stood at 218%.

`O=C(CN1CCOCC1)N1Cc2ccccc2N2CCN(Cc3ccccc3)CC2C1` (stereo not drawn) [Example 87, 1-(3-benzyl-1,2,3,4,4a,5-hexahydropyrazino[1,2-a][1,4]benzodiazepin-6(7H)-yl)-2-(morpholin-4-yl)ethanone]: the activation at 3 µM was 83%.

On to `O=C(c1cscn1)N1Cc2ccccc2N2CCN(Cc3ccccc3)CC2C1` (stereo not drawn) [Example 88, (3-benzyl-1,2,3,4,4a,5-hexahydropyrazino[1,2-a][1,4]benzodiazepin-6(7H)-yl)(1,3-thiazol-4-yl)methanone], for which the activation at 3 µM came out at 139%.

For the compound `O=C(c1cncs1)N1Cc2ccccc2N2CCN(Cc3ccccc3)CC2C1` (stereo not drawn) [Example 89, (3-benzyl-1,2,3,4,4a,5-hexahydropyrazino[1,2-a][1,4]benzodiazepin-6(7H)-yl)(1,3-thiazol-5-yl)methanone], the concentration for a half-maximal effect (EC50) worked out at 1.83 µM and the Emax worked out at 140%.

With `O=C(c1ccno1)N1Cc2ccccc2N2CCN(Cc3ccccc3)CC2C1` (stereo not drawn) [Example 90, (3-benzyl-1,2,3,4,4a,5-hexahydropyrazino[1,2-a][1,4]benzodiazepin-6(7H)-yl)(1,2-oxazol-5-yl)methanone], the activation at 3 µM is 114%.

For the compound `O=C(CCN1CCCC1)N1Cc2ccccc2N2CCN(Cc3ccccc3)CC2C1` (stereo not drawn) [Example 91, 1-(3-benzyl-1,2,3,4,4a,5-hexahydropyrazino[1,2-a][1,4]benzodiazepin-6(7H)-yl)-3-(pyrrolidin-1-yl)propan-1-one], the activation at 3 µM was 78%.

Consider `O=C(CC1CC1)N1Cc2ccccc2N2CCN(Cc3ccccc3)CC2C1` (stereo not drawn) [Example 92, 1-(3-benzyl-1,2,3,4,4a,5-hexahydropyrazino[1,2-a][1,4]benzodiazepin-6(7H)-yl)-2-cyclopropylethanone], for which the concentration giving a half-maximal response (EC50) was determined as 2.47 µM and the Emax was 174%.

Regarding `O=C(c1ccc[nH]1)N1Cc2ccccc2N2CCN(Cc3ccccc3)CC2C1` (stereo not drawn) [Example 93, (3-benzyl-1,2,3,4,4a,5-hexahydropyrazino[1,2-a][1,4]benzodiazepin-6(7H)-yl)(1H-pyrrol-2-yl)methanone], the 50% effective concentration (EC50) turned out to be 1.56 µM and the Emax amounted to 185%.

On to `O=C(c1ccoc1)N1Cc2ccccc2N2CCN(Cc3ccccc3)CC2C1` (stereo not drawn) [Example 94, (3-benzyl-1,2,3,4,4a,5-hexahydropyrazino[1,2-a][1,4]benzodiazepin-6(7H)-yl)(3-furyl)methanone], for which the EC50 was 2.76 µM and the Emax turned out to be 172%.

With `Cc1cc(C(=O)N2Cc3ccccc3N3CCN(Cc4ccccc4)CC3C2)c(C)n1C` (stereo not drawn) [Example 95, (3-benzyl-1,2,3,4,4a,5-hexahydropyrazino[1,2-a][1,4]benzodiazepin-6(7H)-yl)(1,2,5-trimethyl-1H-pyrrol-3-yl)methanone], the EC50 was 0.282 µM and the Emax stood at 189%.

Regarding `Cc1cc(C(=O)N2Cc3ccccc3N3CCN(Cc4ccccc4)CC3C2)c(C)[nH]1` (stereo not drawn) [Example 96, (3-benzyl-1,2,3,4,4a,5-hexahydropyrazino[1,2-a][1,4]benzodiazepin-6(7H)-yl)(2,5-dimethyl-1H-pyrrol-3-yl)methanone], the 50% effective concentration (EC50) is 0.856 µM and the Emax was 180%.

As to `NC(=O)C1(C(=O)N2Cc3ccccc3N3CCN(Cc4ccccc4)CC3C2)CC1` (stereo not drawn) [Example 97, 1-[(3-benzyl-1,2,3,4,4a,5-hexahydropyrazino[1,2-a][1,4]benzodiazepin-6(7H)-yl)carbonyl]cyclopropanecarboxamide], the activation at 3 µM amounted to 32%.
